PMC5556071, “ATR inhibition facilitates targeting of leukemia dependence on convergent nucleotide biosynthetic pathways” (Nature Communications, 2017)
Values joined by “and” are separate entries in the source; they are usually repeats but may differ in a detail not shown here. Equal values may be shown once.

System: CEM cells
Test: Non-targeted LC-MS metabolite profiling: percent [13C6]glucose labeling and relative metabolite levels
Type: cell-based, human
Details: CEM cells, 12 h following release from G1 arrest, replicates #1-#6
Description: To further investigate the functions of dCK and ATR at the G1/S transition in CEM cells, a non-targeted liquid chromatography mass spectrometry (LC-MS) assay was used to determine the utilization of labeled [^13C6]glucose and [^13C9,^15N3]deoxycytidine, the main substrates for de novo and salvage nucleotide biosynthesis, respectively. Of the 166 metabolites identified in CEM cells treated with VE-822 and/or dCKi, 105 metabolites found in all four treatment groups contained glucose-derived ^13C atoms. […] These metabolites included intermediates such as rUTP, rCTP and rCDP in the de novo dCTP biosynthesis (Fig. 1d). […] However, several deoxyribonucleotides, including dCTP, were below the limit of detection of the non-targeted LC-MS approach, raising the concern that the sensitivity of this assay is not sufficient to measure the contribution of the salvage pathway or the ratio of de novo and salvage biosynthesis to these pools. To address this problem, a newly developed targeted MS assay was developed (Fig. 1e and Supplementary Fig. 3). In this assay, samples containing either extracted dNTPs or hydrolyzed DNA from labeled cells are separated by LC for detection by a triple quadrupole mass spectrometer using multiple reaction monitoring (LC-MS/MS-MRM). The first (Q1) and third (Q3) quadrupoles function as mass filters, while the second (Q2) quadrupole serves as a collision chamber (Fig. 1e). For instance, to profile the biosynthetic composition of deoxycytidine (dC) derived from hydrolyzed DNA or dCTP, an intact, protonated dC ion is selected in Q1, followed by fragmentation of the glycosidic bond, which releases protonated cytosine in Q2, that is filtered in Q3 and detected to generate an ion chromatogram. The peak areas for the ion chromatograms of salvage [^13C9,^15N3]dC (red trace), de novo [^13C5]dC (black trace, from [^13C6]glucose) and unlabeled dC (gray trace) (Fig. 1e) are used to determine the relative contributions of the de novo and salvage routes both to dCTP pools and to DNA-incorporated dCTP.
Cells were transferred into RPMI-1640 without glucose and supplemented with 10% dialyzed FBS (Gibco) containing the following labeled substrates: precursors for de novo [U-^13C6]glucose (Sigma-Aldrich, 389374) at 11 mM; precursors for purine salvage [U-^13C10,^15N5]dA (Cambridge Isotopes, CIL 3896), [^15N5]dA (Cambridge Isotopes, NLM-3895) and [^15N5]dG (Cambridge Isotopes, NLM-3899) at 5 µM or as indicated; and precursors for pyrimidine salvage: [U-^13C9,^15N3]dC (Silantes, 124603602) and [U-^13C10,^15N2]dT (Cambridge Isotopes, CNLM-3902) at 5 µM and [^15N2]orotate (Cambridge Isotopes, NLM-1048) at indicated concentrations. The cells were incubated for 12 h or as indicated before sample collection and processing. […]
Non-targeted LC-MS metabolic assays. 1 x 10^6 cells were washed with ice-cold 150 mM ammonium acetate twice before adding 1 mL of ice-cold 80% methanol with 10 nM norvaline as an internal standard. After vigorous vortexing, samples were centrifuged at maximum speed, the aqueous layer was transferred to a glass vial and the metabolites were dried under vacuum. Metabolites were resuspended in 50 μL 70% acetonitrile (ACN) and 5 μL of this solution used for the mass spectrometer-based analysis. The analysis was performed on a Q Exactive (Thermo Scientific) in polarity-switching mode with positive voltage 4.0 kV and negative voltage 4.0 kV. The mass spectrometer was coupled to an UltiMate 3000RSLC (Thermo Scientific) UHPLC system. Mobile phase A was 5 mM ammonium acetate (NH4AcO), pH 9.9, B was acetonitrile and the separation achieved on a Luna […] NH2 100 A column (150 × 2.0 mm, Phenomenex). The flow was 200 μL/min, and the gradient ran from 15% A to 95% A in 18 min, followed by an isocratic step for 9 min and re-equilibration for 7 min. Metabolites were detected and quantified as area under the curve based on retention time and accurate mass (≤ 3 p.p.m.) using the TraceFinder 3.1 (Thermo Scientific). Relative amounts of […]

[1] = metabolite CDP (KEGG C00112), listed as D
[2] = metabolite CDP-EtA (KEGG C00570), listed as D
[3] = metabolite CMP (KEGG C00055), listed as D
[4] = metabolite CTP (KEGG C00063), listed as D
[5] = metabolite Choline (KEGG C00114), listed as D
[6] = metabolite Cinnamic acid (KEGG C00423), listed as D
[7] = metabolite Cit (KEGG C00158), listed as D
[8] = metabolite Creatine (KEGG C00300), listed as D
[9] = metabolite Creatinine (KEGG C00791), listed as D
[10] = metabolite Cytosine (KEGG C00380), listed as D
[11] = metabolite DMG (KEGG C01026), listed as D
[12] = metabolite Dihydroorotate (KEGG C00337), listed as D
[13] = metabolite F16BP (KEGG C00354), listed as D
[14] = metabolite Folate (KEGG C00504), listed as D
[15] = metabolite Fru (KEGG C00095), listed as D
[16] = metabolite Fum (KEGG C00122), listed as D
[17] = metabolite G (KEGG C00387), listed as D
[18] = metabolite dG (KEGG C00330), listed as D

With `COc1ccc(-c2nc([C@@H](C)Sc3nc(N)cc(N)n3)c(C)s2)cc1OCCNS(C)(=O)=O` [dCKi] the “Glucose labeling of CDP” value [1] was 77.96% and 72.97% and 80.28% and 0.44% and 79.17% and 76.50%, the “Relative level of CDP” value [1] was 0.5 and 1.3 and 2.1 and 0.0678 and 0.334 and 0.7 and the “Glucose labeling of CDP-EtA” value [2] was 70.01% and 72.58% and 83.31% and 72.60% and 75.82% and 67.23%. For the same compound, the “Relative level of CDP-EtA” value [2] was 0.9 (4×) and 1.4 and 1.0, the “Glucose labeling of CMP” value [3] was 71.05% and 65.79% and 64.24% and 62.92% and 70.94% and 75.98% and the “Relative level of CMP” value [3] was 1.0 and 0.663 and 1.8 and 0.2 and 0.366 and 0.8. For the same compound, the “Glucose labeling of CTP” value [4] was 81.19% and 79.64% and 75.43% and 84.05% and 71.54% and 81.90%, the “Relative level of CTP” value [4] was 0.345 and 0.9 and 1.2 and 0.0446 and 0.234 and 0.445 and the “Glucose labeling of Choline” value [5] was 0.00256% and 0.00252% and 0.00247% (2×) and 0.00241% and 0.00245%. For the same compound, the “Relative level of Choline” value [5] was 1.1 and 1.3 (2×) and 0.842 and 0.8 (2×), the “Glucose labeling of Cinnamic acid” value [6] was 0.00% (5×) and 1.11e-14% and the “Relative level of Cinnamic acid” value [6] was 1.2 and 1.3 and 1.6 and 0.8 (2×) and 0.7. The “Glucose labeling of Cit” value [7] was 50.63% and 52.82% and 53.30% and 41.63% and 44.16% and 45.64%, the “Relative level of Cit” value [7] was 0.8 and 1.3 and 1.4 and 0.367 and 0.6 and 0.7 and the “Glucose labeling of Citraconic acid” value (metabolite Citraconic acid (KEGG C02226)) was 0.00%. For the same compound, the “Relative level of Citraconic acid” value (metabolite Citraconic acid (KEGG C02226), listed as D) was 1.1 and 1.0 (2×) and 1.3 and 0.645 and 0.9, the “Glucose labeling of Citrulline” value (metabolite Citrulline (KEGG C00327)) was 0.18% and the “Relative level of Citrulline” value (metabolite Citrulline (KEGG C00327), listed as D) was 2.2 and 0.259 and 0.529 and 0.8 and 0.4 and 0.527. The “Glucose labeling of Creatine” value [8] was 0.000817% and 0.00101% and 2.36e-6% and 0.000311% and 0.000285% and 0.000183%, the “Relative level of Creatine” value [8] was 1.0 (4×) and 1.1 (2×) and the “Glucose labeling of Creatinine” value [9] was 0.000768% and 0.000756% and 0.000758% and 0.000811% and 0.00078% and 0.000884%. For the same compound, the “Relative level of Creatinine” value [9] was 1.2 and 0.952 and 1.0 (2×) and 0.8 and 0.9, the “Glucose labeling of Cystathionine” value (metabolite Cystathionine (KEGG C02291)) was 0.26% and the “Relative level of Cystathionine” value (metabolite Cystathionine (KEGG C02291), listed as D) was 1.9 (2×) and 1.8 and 0.9 and 0.634 and 0.644. The “Glucose labeling of Cytosine” value [10] was 0.000526% and 0.000773% and 0.000656% and 0.000291% and 0.000873% and 0.0323%, the “Relative level of Cytosine” value [10] was 1.6 and 0.8 and 1.1 (2×) and 1.4 and 2.5 and the “Glucose labeling of DHAP” value (metabolite DHAP (KEGG C00111)) was 100.00%. The “Relative level of DHAP” value (metabolite DHAP (KEGG C00111)) was 0.162, the “Glucose labeling of DMG” value [11] was 0.05% and 0.06% and 0.000349% and 0.02% and 0.0219% and 0.03% and the “Relative level of DMG” value [11] was 1.0 (2×) and 1.3 (2×) and 1.4 and 1.1. For the same compound, the “Glucose labeling of Dihydroorotate” value [12] was 2.31% and 4.79% and 3.17% and 1.21% and 1.28% and 0.88%, the “Relative level of Dihydroorotate” value [12] was 1.8 and 2.4 and 1.6 and 0.556 and 0.665 and 0.641 and the “Glucose labeling of F16BP” value [13] was 45.03% and 62.70% and 85.32% and 37.47% and 50.53% and 49.36%. The “Relative level of F16BP” value [13] was 0.184 and 0.186 and 0.7 and 0.137 and 0.132 and 0.115, the “Glucose labeling of Folate” value [14] was 100.00% and 0.00% (4×) and 1.11e-14% and the “Relative level of Folate” value [14] was 1.8 and 6.1 and 0.8 and 0.376 and 0.9. The “Glucose labeling of Fru” value [15] was 17.52% and 38.15% and 34.20% and 21.41% and 18.03% and 26.54%, the “Relative level of Fru” value [15] was 1.5 and 0.6 and 0.8 and 1.0 and 1.4 and 0.9 and the “Glucose labeling of Fum” value [16] was 15.19% and 16.91% and 18.53% and 8.92% and 13.71% and 14.45%. For the same compound, the “Relative level of Fum” value [16] was 0.9 and 1.0 and 1.4 and 0.443 and 0.654 and 0.7, the “Glucose labeling of G” value [17] was 100.00% (3×) and 0.55% (3×) and the “Relative level of G” value [17] was 1.4 and 0.8 and 0.9. For the same compound, the “Glucose labeling of dATP” value (metabolite dATP (KEGG C00131)) was 100.00%, the “Relative level of dATP” value (metabolite dATP (KEGG C00131), listed as D) was 0.743 and 1.0 and the “Glucose labeling of dCTP” value (metabolite dCTP (KEGG C00458)) was 100.00%. The “Relative level of dCTP” value (metabolite dCTP (KEGG C00458), listed as D) was 1.0 and 0.8 and 1.2, the “Glucose labeling of dG” value [18] was 0.40% and 0.52% and 0.55% and 0.48% and 0.47% and 0.42% and the “Relative level of dG” value [18] was 1.5 and 0.9 (2×) and 1.1 and 0.8 (2×). For the same compound, the “Glucose labeling of dGDP” value (metabolite dGDP (KEGG C00361)) was 100.00%, the “Relative level of dGDP” value (metabolite dGDP (KEGG C00361)) was 0.0 and the “Glucose labeling of dTMP” value (metabolite dTMP (KEGG C00364)) was 100.00%. For the same compound, the “Relative level of dTMP” value (metabolite dTMP (KEGG C00364), listed as D) was 1.6 (2×) and 1.0 and 2.4, the “Glucose labeling of dTTP” value (metabolite dTTP (KEGG C00459)) was 100.00% and the “Relative level of dTTP” value (metabolite dTTP (KEGG C00459), listed as D) was 1.6 and 3.4 and 1.3. For the same compound, the “Glucose labeling, Lys” value was 0.00%, the “Glucose labeling, NAD+” value was 0.00% and the “Glucose labeling, Nicotinamide” value was 0.00%. The “Glucose labeling, P-Creatine” value was 0.0737%, the “Glucose labeling, P-EtA” value was 0.0123% and the “Glucose labeling, PEP” value was 100.00%. For the same compound, the “Glucose labeling, Phe” value was 0.00%, the “Glucose labeling, Pipecolate” value was 0.00% and the “Glucose labeling, Pyr” value was 100.00%. For the same compound, the “Glucose labeling, Thr (C00188)” value was 0.00% and the “Glucose labeling, Trigonelline (C01004)” value was 0.00%.
